Source: patent publication US10167262B2, “Herbicidal substituted 3-arylpyrazoles” (FMC CORPORATION, priority 2014, dated 2019)

Experiments:
Assay in all cases: Test C pre-/postemergence greenhouse test, plant response rating 0-100
Type in all cases: in vivo
Conditions in all cases: Postemergence
[1] = test system: winter wheat (Triticum aestivum)
Summary of the method: (§1)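 Plants were treated either at seeding (soil of loam and sand) or as 2–18 cm seedlings in a sphagnum peat mix, using test chemicals in a surfactant-containing non-phytotoxic solvent. Visual assessment relative to controls followed 13–15 days later.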

soybean (Glycine max) = test system: soybean (Glycine max)
Summary of the method: as §1

[2] = test system: Italian ryegrass (Lolium multiflorum)
Summary of the method: as §1

corn (Zea mays) = test system: corn (Zea mays)
Summary of the method: as §1

[3] = test system: ragweed (common ragweed, Ambrosia elatior)
Summary of the method: as §1

[4] = test system: blackgrass (Alopecurus myosuroides)
Summary of the method: as §1

[5] = test system: yellow nutsedge (Cyperus esculentus)
Summary of the method: as §1

[6] = test system: lambsquarters (Chenopodium album)
Summary of the method: as §1

[7] = test system: johnsongrass (Sorghum halepense)
Summary of the method: as §1

[8] = test system: giant foxtail (Setaria faberii)
Summary of the method: as §1

[9] = test system: velvetleaf (Abutilon theophrasti)
Summary of the method: as §1

[10] = test system: pigweed (Amaranthus retroflexus)
Summary of the method: as §1

[11] = test system: large (Lg) crabgrass (Digitaria sanguinalis)
Summary of the method: as §1

CCCn1cc(C(=O)c2ccccc2)c(-c2cc(Cl)cc(Cl)c2)n1 [Compound 61, [3-(3,5-dichlorophenyl)-1-propyl-1H-pyrazol-4-yl]phenylmethanone]
0%: plant injury at 62 g/ha ([1]; Triticum aestivum, post-emergence, 62 g ai/ha, read-out: Plant response rating (0 to 100), Wheat) | plant injury at 125 g/ha ([1]; Triticum aestivum, post-emergence, 125 g ai/ha, read-out: Plant response rating (0 to 100), Wheat) | plant injury at 250 g/ha ([1]; Triticum aestivum, post-emergence, 250 g ai/ha, scale 0 to 100) | plant injury at 62 g/ha (soybean (Glycine max); Glycine max, post-emergence, 62 g ai/ha, read-out: Plant response rating (0 to 100), Soybean) | pest or weed control at 62 g/ha ([2]; Lolium multiflorum, post-emergence, 62 g ai/ha, read-out: Plant response rating (0 to 100), Ryegrass, Italian) | pest or weed control at 125 g/ha ([2]; Lolium multiflorum, post-emergence, 125 g ai/ha, read-out: Plant response rating (0 to 100), Ryegrass, Italian) | pest or weed control at 250 g/ha ([2]; Lolium multiflorum, post-emergence, 250 g ai/ha, scale 0 to 100) | pest or weed control at 31 g/ha ([4]; Alopecurus myosuroides, post-emergence, 31 g ai/ha, read-out: Plant response rating (0 to 100), Blackgrass) | pest or weed control at 62 g/ha ([4]; Alopecurus myosuroides, post-emergence, 62 g ai/ha, read-out: Plant response rating (0 to 100), Blackgrass) | pest or weed control at 125 g/ha ([4]; Alopecurus myosuroides, post-emergence, 125 g ai/ha, read-out: Plant response rating (0 to 100), Blackgrass) | pest or weed control at 250 g/ha ([4]; Alopecurus myosuroides, post-emergence, 250 g ai/ha, scale 0 to 100) | pest or weed control at 62 g/ha ([5]; Cyperus, post-emergence, 62 g ai/ha, read-out: Plant response rating (0 to 100), Nutsedge, Yellow)
5%: plant injury at 31 g/ha (corn (Zea mays); Zea mays, post-emergence, 31 g ai/ha) | plant injury at 62 g/ha (corn (Zea mays); Zea mays, post-emergence, 62 g ai/ha) | plant injury at 125 g/ha (corn (Zea mays); Zea mays, post-emergence, 125 g ai/ha) | Corn plant response rating (crop injury, 0 = no effect, 100 = complete kill) at 250 g/ha (corn (Zea mays); Zea mays, post-emergence, 250 g ai/ha, scale 0 to 100) | pest or weed control at 125 g/ha ([5]; Cyperus, post-emergence, 125 g ai/ha, read-out: Plant response rating (0 to 100), Nutsedge, Yellow) | pest or weed control at 250 g/ha ([5]; Cyperus, post-emergence, 250 g ai/ha, scale 0 to 100) | pest or weed control at 31 g/ha ([8]; Setaria faberi, post-emergence, 31 g ai/ha, read-out: Plant response rating (0 to 100), Foxtail, Giant) | pest or weed control at 62 g/ha ([8]; Setaria faberi, post-emergence, 62 g ai/ha, read-out: Plant response rating (0 to 100), Foxtail, Giant) | pest or weed control at 125 g/ha ([8]; Setaria faberi, post-emergence, 125 g ai/ha, read-out: Plant response rating (0 to 100), Foxtail, Giant) | pest or weed control at 31 g/ha ([11]; Digitaria sanguinalis, post-emergence, 31 g ai/ha, read-out: Plant response rating (0 to 100), Crabgrass, Large) | pest or weed control at 62 g/ha ([11]; Digitaria sanguinalis, post-emergence, 62 g ai/ha, read-out: Plant response rating (0 to 100), Crabgrass, Large) | pest or weed control at 125 g/ha ([11]; Digitaria sanguinalis, post-emergence, 125 g ai/ha, read-out: Plant response rating (0 to 100), Crabgrass, Large) | pest or weed control at 250 g/ha ([11]; Digitaria sanguinalis, post-emergence, 250 g ai/ha, scale 0 to 100)
10%: plant injury at 125 g/ha (soybean (Glycine max); Glycine max, post-emergence, 125 g ai/ha, read-out: Plant response rating (0 to 100), Soybean) | pest or weed control at 62 g/ha ([3]; Ambrosia artemisiifolia, post-emergence, 62 g ai/ha, read-out: Plant response rating (0 to 100), Ragweed) | pest or weed control at 62 g/ha ([7]; Sorghum halepense, post-emergence, 62 g ai/ha, read-out: Plant response rating (0 to 100), Johnsongrass) | pest or weed control at 125 g/ha ([7]; Sorghum halepense, post-emergence, 125 g ai/ha, read-out: Plant response rating (0 to 100), Johnsongrass) | pest or weed control at 250 g/ha ([7]; Sorghum halepense, post-emergence, 250 g ai/ha, scale 0 to 100) | pest or weed control at 250 g/ha ([8]; Setaria faberi, post-emergence, 250 g ai/ha, scale 0 to 100)
55%: pest or weed control at 125 g/ha ([6]; Chenopodium album, post-emergence, 125 g ai/ha, read-out: Plant response rating (0 to 100), Lambsquarters) | pest or weed control at 250 g/ha ([6]; Chenopodium album, post-emergence, 250 g ai/ha, scale 0 to 100)
100%: pest or weed control at 62 g/ha ([10]; Amaranthus retroflexus, post-emergence, 62 g ai/ha, read-out: Plant response rating (0 to 100), Pigweed) | pest or weed control at 125 g/ha ([10]; Amaranthus retroflexus, post-emergence, 125 g ai/ha, read-out: Plant response rating (0 to 100), Pigweed) | pest or weed control at 250 g/ha ([10]; Amaranthus retroflexus, post-emergence, 250 g ai/ha, scale 0 to 100)
15%: plant injury at 250 g/ha (soybean (Glycine max); Glycine max, post-emergence, 250 g ai/ha, scale 0 to 100)
40%: pest or weed control at 125 g/ha ([3]; Ambrosia artemisiifolia, post-emergence, 125 g ai/ha, read-out: Plant response rating (0 to 100), Ragweed) | pest or weed control at 250 g/ha ([3]; Ambrosia artemisiifolia, post-emergence, 250 g ai/ha, scale 0 to 100) | pest or weed control at 62 g/ha ([6]; Chenopodium album, post-emergence, 62 g ai/ha, read-out: Plant response rating (0 to 100), Lambsquarters) | pest or weed control at 62 g/ha ([9]; Abutilon theophrasti, post-emergence, 62 g ai/ha, read-out: Plant response rating (0 to 100), Velvetleaf)
75%: pest or weed control at 125 g/ha ([9]; Abutilon theophrasti, post-emergence, 125 g ai/ha, read-out: Plant response rating (0 to 100), Velvetleaf) | pest or weed control at 250 g/ha ([9]; Abutilon theophrasti, post-emergence, 250 g ai/ha, scale 0 to 100)

Clc1cc(Cl)cc(-c2n[nH]cc2C(=NNc2ccccc2Cl)c2ccccc2)c1 [Compound 66]
100: Plant response rating, Pigweed ([10]; 500 g ai/ha, scale 0 to 100)
50: Plant response rating (0 to 100), Lambsquarters ([6]; 125 g ai/ha)
90: Plant response rating, Lambsquarters ([6]; 250 g ai/ha, scale 0 to 100) | Plant response rating, Lambsquarters ([6]; 500 g ai/ha, scale 0 to 100) | Plant response rating, Velvetleaf ([9]; 500 g ai/ha, scale 0 to 100)
80: Plant response rating (0 to 100), Ragweed ([3]; 125 g ai/ha) | Plant response rating, Velvetleaf ([9]; 250 g ai/ha, scale 0 to 100)
10: Plant response rating (0 to 100), Ragweed ([3]; 62 g ai/ha)
95: Plant response rating, Ragweed ([3]; 500 g ai/ha, scale 0 to 100) | Plant response rating, Pigweed ([10]; 250 g ai/ha, scale 0 to 100)
0: Plant response rating (0 to 100), Wheat ([1]; 62 g ai/ha) | Plant response rating (0 to 100), Wheat ([1]; 125 g ai/ha) | Plant response rating, Wheat ([1]; 250 g ai/ha, scale 0 to 100) | Plant response rating, Wheat ([1]; 500 g ai/ha, scale 0 to 100) | Plant response rating (0 to 100), Soybean (soybean (Glycine max); 62 g ai/ha) | Plant response rating (0 to 100), Soybean (soybean (Glycine max); 125 g ai/ha) | Plant response rating, Soybean (soybean (Glycine max); 250 g ai/ha, scale 0 to 100) | Plant response rating (0 to 100), Ryegrass, Italian ([2]; 62 g ai/ha) | Plant response rating (0 to 100), Ryegrass, Italian ([2]; 125 g ai/ha) | Plant response rating, Ryegrass, Italian ([2]; 250 g ai/ha, scale 0 to 100) | Plant response rating, Ryegrass, Italian ([2]; 500 g ai/ha, scale 0 to 100) | Plant response rating (0 to 100), Corn (corn (Zea mays); 62 g ai/ha) | Plant response rating (0 to 100), Corn (corn (Zea mays); 125 g ai/ha) | Plant response rating (0 to 100), Blackgrass ([4]; 62 g ai/ha) | Plant response rating (0 to 100), Blackgrass ([4]; 125 g ai/ha) | Plant response rating, Blackgrass ([4]; 250 g ai/ha, scale 0 to 100) | Plant response rating, Blackgrass ([4]; 500 g ai/ha, scale 0 to 100) | Plant response rating (0 to 100), Nutsedge, Yellow ([5]; 62 g ai/ha) | Plant response rating (0 to 100), Nutsedge, Yellow ([5]; 125 g ai/ha) | Plant response rating, Nutsedge, Yellow ([5]; 250 g ai/ha, scale 0 to 100) | Plant response rating, Nutsedge, Yellow ([5]; 500 g ai/ha, scale 0 to 100) | Plant response rating (0 to 100), Johnsongrass ([7]; 62 g ai/ha) | Plant response rating (0 to 100), Johnsongrass ([7]; 125 g ai/ha) | Plant response rating, Johnsongrass ([7]; 250 g ai/ha, scale 0 to 100) | Plant response rating, Johnsongrass ([7]; 500 g ai/ha, scale 0 to 100) | Plant response rating (0 to 100), Foxtail, Giant ([8]; 62 g ai/ha) | Plant response rating (0 to 100), Foxtail, Giant ([8]; 125 g ai/ha) | Plant response rating, Foxtail, Giant ([8]; 250 g ai/ha, scale 0 to 100) | Plant response rating, Foxtail, Giant ([8]; 500 g ai/ha, scale 0 to 100) | Plant response rating (0 to 100), Crabgrass, Large ([11]; 62 g ai/ha) | Plant response rating (0 to 100), Crabgrass, Large ([11]; 125 g ai/ha) | Plant response rating, Crabgrass, Large ([11]; 250 g ai/ha, scale 0 to 100) | Plant response rating, Crabgrass, Large ([11]; 500 g ai/ha, scale 0 to 100)
55: Plant response rating (0 to 100), Velvetleaf ([9]; 62 g ai/ha) | Plant response rating (0 to 100), Velvetleaf ([9]; 125 g ai/ha) | Plant response rating (0 to 100), Pigweed ([10]; 62 g ai/ha)
5: Plant response rating, Soybean (soybean (Glycine max); 500 g ai/ha, scale 0 to 100) | Plant response rating, Corn (corn (Zea mays); 250 g ai/ha, scale 0 to 100) | Plant response rating, Corn (corn (Zea mays); 500 g ai/ha, scale 0 to 100)
85: Plant response rating (0 to 100), Pigweed ([10]; 125 g ai/ha)
40: Plant response rating (0 to 100), Lambsquarters ([6]; 62 g ai/ha)
